# Test results as given in BigSolDB 2.1.
compound,measurement,setting,value
CN1COCN(Cc2cnc(Cl)s2)C1=N[N+](=O)[O-],solubility (mole fraction),"in 1,4-dioxane, 288.15 K",0.00242
same,solubility (mole fraction),"in 1,4-dioxane, 293.15 K",0.00311
same,solubility (mole fraction),"in 1,4-dioxane, 298.15 K",0.00395
same,solubility (mole fraction),"in 1,4-dioxane, 303.15 K",0.00496
same,solubility (mole fraction),"in 1,4-dioxane, 308.15 K",0.00626
same,solubility (mole fraction),"in 1,4-dioxane, 313.15 K",0.00763
same,solubility (mole fraction),"in 1,4-dioxane, 318.15 K",0.00958
same,solubility (mole fraction),"in 1,4-dioxane, 323.15 K",0.0117
same,solubility (mole fraction),"in DMAc, 278.15 K",0.0654
same,solubility (mole fraction),"in DMAc, 283.15 K",0.0728
same,solubility (mole fraction),"in DMAc, 288.15 K",0.0802
same,solubility (mole fraction),"in DMAc, 293.15 K",0.0888
same,solubility (mole fraction),"in DMAc, 298.15 K",0.0976
same,solubility (mole fraction),"in DMAc, 303.15 K",0.107
same,solubility (mole fraction),"in DMAc, 308.15 K",0.118
same,solubility (mole fraction),"in DMAc, 313.15 K",0.129
same,solubility (mole fraction),"in DMAc, 318.15 K",0.14
same,solubility (mole fraction),"in DMAc, 323.15 K",0.152
same,solubility (mole fraction),"in DMSO, 288.15 K",0.0672
same,solubility (mole fraction),"in DMSO, 293.15 K",0.0776
same,solubility (mole fraction),"in DMSO, 298.15 K",0.0885
same,solubility (mole fraction),"in DMSO, 303.15 K",0.101
same,solubility (mole fraction),"in DMSO, 308.15 K",0.115
same,solubility (mole fraction),"in DMSO, 313.15 K",0.13
same,solubility (mole fraction),"in DMSO, 318.15 K",0.147
same,solubility (mole fraction),"in DMSO, 323.15 K",0.164
same,solubility (mole fraction),"in acetonitrile, 278.15 K",0.00675
same,solubility (mole fraction),"in acetonitrile, 283.15 K",0.00854
same,solubility (mole fraction),"in acetonitrile, 288.15 K",0.0106
same,solubility (mole fraction),"in acetonitrile, 293.15 K",0.0131
same,solubility (mole fraction),"in acetonitrile, 298.15 K",0.0161
same,solubility (mole fraction),"in acetonitrile, 303.15 K",0.0196
same,solubility (mole fraction),"in acetonitrile, 308.15 K",0.0238
same,solubility (mole fraction),"in acetonitrile, 313.15 K",0.0288
same,solubility (mole fraction),"in acetonitrile, 318.15 K",0.0349
same,solubility (mole fraction),"in acetonitrile, 323.15 K",0.0414
same,solubility (mole fraction),"in water, 278.15 K",7.29e-05
same,solubility (mole fraction),"in water, 283.15 K",9.97e-05
same,solubility (mole fraction),"in water, 288.15 K",0.000132
same,solubility (mole fraction),"in water, 293.15 K",0.000182
same,solubility (mole fraction),"in water, 298.15 K",0.000241
same,solubility (mole fraction),"in water, 303.15 K",0.000322
same,solubility (mole fraction),"in water, 308.15 K",0.000418
same,solubility (mole fraction),"in water, 313.15 K",0.000538
same,solubility (mole fraction),"in water, 318.15 K",0.000696
same,solubility (mole fraction),"in water, 323.15 K",0.000885
